According to US9573960B2, “Glioblastoma inhibiting compounds and their use” (Life & Brain GmbH, priority 2011, dated 2017):
Structures can show the parent of a compound that is named as a salt. Where two headings read alike, the source gives them in different places.

Legend:
glioma cell line U87 = assay: Drug screening, AlamarBlue assay in U87; type: cell-based; conditions: for inhibition at 1 µM: Glioma cell, 144 h, read-out: reduction of the relative metabolic activity of U87
Method: (§1) Experiments were performed in triplicates for each sample.
For comparison with our four patient-specific primary GBM cell specimens, we used the commercially available glioma cell line U87 that is frequently investigated in drug discovery settings (FIG. 2).

[1] = tested on: patient-specific GBM primary cells; assay: Pharmacodynamic analysis of pristimerin, AlamarBlue (ICM50); type: cell-based; conditions: Homo sapiens, 120 h
Method: For pharmacodynamic analyses of pristimerin and niclosamide 5×10^4 cells were plated in 12 well plates 24 h before they were treated with concentrations indicated. 5 days after the treatment, cell viability was monitored by the AlamarBlue® assay. Experiments were performed in triplicates. The ICM50 is the concentration of agent that reduced the metabolic activity by 50% under the experimental conditions.
Pristimerin induces apoptosis in GBM primary cells. […] Because the peak plasma concentration of pristimerin is not yet known, we investigated a range of concentrations between 70 nM and 10 μM (FIG. 5). Under these conditions, pristimerin is potently cytotoxic at median ICM50's (half maximal inhibitory concentration of metabolic activity) of approximately 500 nM (FIG. 5a,b,d)

[2] = tested on: GBM primary cells under non-adherent conditions (neurospheres); assay: Pristimerin in 3D culture, non-adherent growth conditions (ICM50); type: cell-based; conditions: Homo sapiens, single dose, specimens 046, 078, 106
Text: FIG. 11: Inhibition of GBM primary cells under adherent (solid line) vs. non-adherent (dotted line) conditions. Results represent the mean of triplicate-well-analysis for 3 different specimens at each concentration (046, 078, 106)
The GBM-inhibitory activity of Pristimerin was confirmed in 3D culture systems, i.e. non-adherent growth conditions (FIG. 11). Under anchorage-withdrawal, GBM cells form neurospheres, and investigation of their metabolic response patterns indicated a more resistant phenotype.

[3] = tested on: patient-specific GBM primary cultures; assay: AnnexinV-based FACS analysis of apoptosis; type: cell-based, human; conditions: 1 μM, 5-day exposure, in 7 out of 8 cultures
Method: […] 1×10^5 cells were sedimented by centrifugation, resuspended in […] AnnexinV buffer (BD Bioscience, Heidelberg, Germany) and incubated with 5 μl Annexin V-FITC (BD Bioscience, Heidelberg, Germany) for 1 h at RT. To distinguish between living and dead cells, labeling with 1.2 μg/ml bisbenzimide H33258 (Invitrogen, Karlsruhe, Germany) was used. Expression was determined using standard conditions in a LSRII equipped with FACSDiva Software (BD Bioscience, Heidelberg, Germany). For each measurement, 20.000 cells were counted. Annexin V positive cells, Annexin V and H33258 positive cells and H33258 positive cells were termed avital cells.
These effects could be validated as compound-specific, based on analysis of Pristimerin purchased from an independent supplier that yielded similar results (Sigma; FIG. 1b). For further experimentation, pristimerin was applied at 1 μM concentrations (FIG. 1c). […] In 7 out of 8 investigated patient-specific GBM primary cultures more than 50% of all cells could be classified as avital (FIG. 6; ***p<0.001, compared to their respective DMSO-treated control cells).

GBM primary cells = assay: Growth kinetic analysis (proliferation kinetics); type: cell-based, human; conditions: single dose 1 μM
Method: Five days after treatment in 6 cm dishes, 47,000 vital cells were plated into 3.5 cm laminin/poly-L-ornithine coated plastic dishes. 20 ng/ml EGF/bFGF were provided upon plating, and 10 ng/ml EGF/bFGF were added every other day thereafter. Four-to-six days later, adherent cells were trypsinized, harvested, counted, and plated at a density of 4.7×10^4 cells. This procedure was repeated for 4-5 passages. Mean values are presented with standard error.
Cells surviving the application of Pristimerin expand linearly on a logarithmic scale. There is an initial delay of cell growth lasting for a maximum of 10 days. However, thereafter, every patient-specific GBM primary culture we investigated thus far continued to proliferate as well as their respective DMSO-control (FIG. 7).

[4] = tested on: GBM primary cells (035, 046); assay: Long-term monitoring of cell confluency (CellaVista); type: cell-based, human; conditions: single dose 1 μM, post compound application
Method: FIG. 8: Long-term monitoring of cellular confluency post application of 1 μM pristimerin (dotted lines) in two independent GBM primary cell culture experiments (035=triangle; 046=squares) (solid line, 0.1% DMSO). Live cell-imaging was performed using the CellaVista system according to its specifications (Roche Diagnostics).
We used the CellaVistasystem (Roche Diagnostics, Mannheim) for monitoring of cell confluency as a surrogate analysis tool.

[5] = tested on: clonogenic, neurosphere-forming GBM cells; assay: Neurosphere assay after pristimerin; type: cell-based, human; conditions: single dose 1 μM, cases 046, 078, 106
Method: Based on previous investigations (Scheffler et al., 2005), a single cell suspension of 1×10^4 cells/cm^2 was diluted in 1% methylcellulose-containing PROL media provided with 20 ng/ml EGF/bFGF, and inoculated into nonadhesive culture dishes. 10 ng/ml EGF/bFGF was then added every other day. Neurospheres were quantified at 21 days in culture, triturated to a single cell suspension, which was used for plating under identical conditions and analysis of the formation of secondary or higher degree neurospheres. For analysis of multipotency, a representative fraction of 3° neurospheres were used. Neurospheres were plated onto laminin/poly-L-ornithine coated glass coverslips and, after attachment, provided with PROL media devoid of mitogens to allow differentiation for 2-3 weeks in culture before PFA-fixation and immunofluorescence analysis.
Furthermore, a single dose of pristimerin decreased the frequency of clonogenic, i.e. neurosphere-forming cells by 30-60% (FIG. 9a,b). Depletion of clonogenic cells was never observed at concentrations of […]. Clonogenic cells were always able to selfrenew and form higher-degree neurospheres that gave rise to immature neurons and astrocytes (FIG. 9c). These findings indicate that Pristimerin is not selectively inhibiting GBM cancer stem cells. […]

[6] = tested on: four patient-specific primary GBM cultures; conditions: for effect on the primary GBM cells' metabolic activity: 1 μM
Method: Before screening, cell number was titrated for each cell line separately to ensure that cell proliferation remained in a linear-exponential phase throughout the experiment. 24 hours after seeding 2−3×10^3 cells/well into laminin/poly-L-ornithine coated 96-well plates, primary cultures were treated with 2 nM, 1 μM or 10 μM of each compound (stock solution 10 mM in DMSO). As a reference we treated cells with 50 μM and 500 μM temozolomide (TMZ, SigmaAldrich, Taufkirchen, Germany; stock solution of 100 mM in DMSO). Control cells were treated with 0.5-0.01% DMSO. Six days after application, cell viability was determined using the AlamarBlue® assay according to the manufacturers recommendations (Invitrogen, Karlsruhe, Germany). Fluorescence was measured using an Infinite200 microplate reader (Tecan, Crailsheim, Germany) at Xex=540 nm and Xem=590 nm. Experiments were performed in triplicates for each sample.
To identify cytotoxic and cytostatic compounds, we conducted in vitro drug-screening assays in four different patient-specific primary GBM cultures (see Table 1 for basic characterization of research specimens).
The compound library was screened at three different concentrations (10 μM, 1 μM, 2 nM). The relative metabolic activity was determined after a 5-day incubation with compounds. […] For reference, we applied 50 μM (reported plasma peak concentration) and 500 μM of temozolomide (TMZ, as described in Beier et al., 2008), the current standard chemotherapeutic GBM drug to our cells. […] However, “hits” in the setting of a primary screening were defined as a reduction of the relative metabolic activity under the level of 50% of DMSO-treated control cells.

[7] = tested on: #155 cells (primary cells from a patient with pharmacoresistent epilepsy); assay: Drug screening, AlamarBlue assay in #155 control cells; type: cell-based, human; conditions: 1 μM
Method: as §1
As an alternative control, primary cells were evaluated, which were obtained from a patient suffering from pharmacoresistent epilepsy (patient #155).

[8] = in vivo; cited from earlier work

COC(=O)[C@]1(C)CC[C@]2(C)CC[C@]3(C)C4=CC=C5C(=CC(=O)C(O)=C5C)[C@]4(C)CC[C@@]3(C)[C@@H]2C1 [Pristimerin]
inhibition at 1 µM (glioma cell line U87): ≤ 50% | IC50 ([1]; 70 nM to 10 μM, 5 days post application, read-out: median ICM50 (half maximal inhibitory concentration of metabolic activity)): ~500 nM | IC50 ([1]; Microsource compound, 5 days, read-out: median ICM50): 580 nM | IC50 ([1]; Sigma compound, 5 days, read-out: median ICM50): 430 nM | IC50 [2]: 1100 nM | cells classified as avital [3]: more than 50% | initial delay of cell growth (GBM primary cells): ≤ 10 days | time before surviving cells take on proliferative activity [4]: ≥ 10 days | decrease of frequency of clonogenic, neurosphere-forming cells [5]: 30-60% | reduction of metabolic activity ([6]; case 023, 1 μM): 90% | reduction of metabolic activity ([6]; case 035, 1 μM): 97% | reduction of metabolic activity ([6]; case 046, 1 μM): 78% | reduction of metabolic activity ([6]; case 106, 1 μM): 97%

O=c1[nH]c(=O)n([C@H]2C[C@H](O)[C@@H](CO)O2)cc1F [Floxuridine]
inhibition at 1 µM (glioma cell line U87; 1 μM): ≤ 50% | effect on the metabolic activity of the #155 cells [7]: very little effect

C=C(C)[C@H]1Cc2c(ccc3c2O[C@@H]2COc4cc(OC)c(OC)cc4[C@@H]2C3=O)O1 [Rotenone]
inhibition at 1 µM (glioma cell line U87): ≤ 50% | effect on the metabolic activity of the #155 cells [7]: very little effect

C[C@@]12C(=O)OC(=O)[C@]1(C)[C@H]1CC[C@@H]2O1 [Cantharidin]
effect on the metabolic activity of the #155 cells [7]: diminished the metabolic activity of the #155 cells significantly | effect on the primary GBM cells' metabolic activity [6]: no significant effect

CC[C@@]1(O)C(=O)OCc2c1cc1n(c2=O)Cc2cc3cc(O)ccc3nc2-1 [10-Hydroxycamptothecin]
effect on the metabolic activity of the #155 cells [7]: very little effect

O=C(Nc1ccc([N+](=O)[O-])cc1Cl)c1cc(Cl)ccc1O [Niclosamide]
inhibition at 1 µM (glioma cell line U87; 1 μM): ≤ 50% | effect on the metabolic activity of the #155 cells [7]: very little effect

CCCCCCCCCCCCCC(=O)O[C@@H]1[C@@H](C)[C@@]2(O)[C@@H](C=C(CO)C[C@]3(O)C(=O)C(C)=C[C@@H]23)[C@@H]2C(C)(C)[C@]12OC(C)=O [phorbol myristate acetate]
effect on the metabolic activity of the #155 cells [7]: diminished the metabolic activity of the #155 cells significantly | effect on the primary GBM cells' metabolic activity [6]: no significant effect

COc1cc(O)c2c(c1)C(=O)c1cc(C)cc(O)c1C2=O [Physicion]
influence on the U87's metabolic activity (glioma cell line U87; 1 μM): significant influence | effect on the primary GBM cells' metabolic activity [6]: without affecting

O=C1C(Cl)=C(Cl)C(=O)c2c(O)ccc(O)c21 [2,3-dichloro-5,8-dihydroxynapthoquinone]
effect on the metabolic activity of the #155 cells [7]: diminished the metabolic activity of the #155 cells significantly | effect on the primary GBM cells' metabolic activity [6]: no significant effect

COc1cc([C@@H]2c3cc4c(cc3[C@@H](O[C@@H]3O[C@@H]5CO[C@@H](c6cccs6)O[C@H]5[C@H](O)[C@H]3O)[C@H]3COC(=O)[C@H]23)OCO4)cc(OC)c1O [Teniposide]
inhibition at 1 µM (glioma cell line U87; 1 μM): ≤ 50% | effect on the metabolic activity of the #155 cells [7]: very little effect

CC[C@@]1(O)C(=O)OCc2c1cc1n(c2=O)Cc2cc3ccccc3nc2-1 [camptothecin]
effect on the metabolic activity of the #155 cells [7]: very little effect

CC(=O)O[C@H]1C(=O)[C@@]2(C)[C@H]([C@H](OC(=O)c3ccccc3)[C@]3(O)C[C@H](OC(=O)[C@H](O)[C@@H](NC(=O)c4ccccc4)c4ccccc4)C(C)=C1C3(C)C)[C@]1(OC(C)=O)CO[C@@H]1C[C@@H]2O [paclitaxel]
effect on the metabolic activity of the #155 cells [7]: very little effect

C=C1[C@@H](C)[C@H]2[C@H](Cc3ccccc3)NC(=O)[C@]23[C@H](OC(C)=O)/C=C/[C@@](C)(O)C(=O)[C@@H](C)C/C=C/[C@H]3[C@@H]1O [cytochalasin D]
effect on the metabolic activity of the #155 cells [7]: diminished the metabolic activity of the #155 cells significantly | effect on the primary GBM cells' metabolic activity [6]: no significant effect

N=c1ccn2c(n1)O[C@H]1[C@H](O)[C@@H](CO)O[C@H]12 [Ancitabine hydrochloride]
inhibition at 1 µM (glioma cell line U87; 1 μM): ≤ 50%

CC[C@H]1CN2CCc3cc(OC)c(OC)cc3[C@@H]2C[C@@H]1C[C@H]1NCCc2cc(OC)c(OC)cc21 [emetine]
effect on the metabolic activity of the #155 cells [7]: very little effect

CC[C@]1(O)C[C@H]2CN(CCc3c([nH]c4ccccc34)[C@@](C(=O)OC)(c3cc4c(cc3OC)N(C=O)[C@H]3[C@@](O)(C(=O)OC)[C@H](OC(C)=O)[C@]5(CC)C=CCN6CC[C@]43[C@@H]65)C2)C1 [vincristine sulfate]
effect on the metabolic activity of the #155 cells [7]: very little effect

COc1cc([C@@H]2c3cc4c(cc3[C@H](O)[C@H]3COC(=O)[C@@H]23)OCO4)cc(OC)c1OC [Picropodophyllotoxin]
inhibition at 1 µM (glioma cell line U87): ≤ 50% | effect on the metabolic activity of the #155 cells [7]: very little effect

CN(Cc1cnc2nc(N)nc(N)c2n1)c1ccc(C(=O)N[C@@H](CCC(=O)O)C(=O)O)cc1 [Methotrexate]
inhibition at 1 µM (glioma cell line U87; 1 μM): ≤ 50% | effect on the metabolic activity of the #155 cells [7]: very little effect

Nc1nc2nc[nH]c2c(=S)[nH]1 [Thioguanine]
inhibition at 1 µM (glioma cell line U87; 1 μM): ≤ 50% | effect on the metabolic activity of the #155 cells [7]: very little effect

Cn1nnc2c(C(N)=O)ncn2c1=O [TMZ, temozolomide]
reduction of relative metabolic activity ([6]; 50 μM TMZ, mean of four patient-specific primary cultures): 17% | relative metabolic activity, level ([6]; 500 μM TMZ, mean of four patient-specific primary cultures): 63% | reported plasma peak concentration [8]: 50 µM
